From ChEMBL document CHEMBL4257544, “Synthesis and biological evaluation of novel asymmetric naphthalene diimide derivatives as anticancer agents depending on ROS generation” (Medchemcomm, 2018)
Active and inactive are the calls of the source. The calls are words filed in the database; no cut-off is given here.

How the values were obtained:
HepG2 [1] = assay: Cytotoxicity against human HepG2 cells after 48 hrs by MTT assay; format: functional, cell-based; settings: HepG2, 48 h
SMMC-7721 [2] = assay: Cytotoxicity against human SMMC7721 cells after 48 hrs by MTT assay; format: functional, cell-based; settings: SMMC-7721, 48 h
MDA-MB-231 = assay: Cytotoxicity against human MDA-MB-231 cells after 48 hrs by MTT assay; format: functional, cell-based; settings: MDA-MB-231, 48 h
MCF7 = assay: Cytotoxicity against human MCF7 cells after 48 hrs by MTT assay; format: functional, cell-based; settings: MCF7, 48 h
HepG2 [3] = assay: Cytotoxicity against human HepG2 cells after 24 hrs by MTT assay; format: functional, cell-based; settings: HepG2, 24 h
SMMC-7721 [4] = assay: Cytotoxicity against human SMMC7721 cells assessed as cytoplasm shrinkage after 24 hrs; format: functional, cell-based
HepG2 [5] = assay: Induction of apoptosis in human HepG2 cells after 24 hrs by Annexin V/propidium iodide staining based flow cytometry; format: functional, cell-based
SMMC-7721 [6] = assay: Induction of apoptosis in human SMMC7721 cells after 24 hrs by Annexin V/propidium iodide staining based flow cytometry; format: functional, cell-based
SMMC-7721 [7] = assay: Induction of apoptosis in human SMMC7721 cells at 3 uM after 48 hrs by Annexin V/propidium iodide staining based flow cytometry relative to control; format: functional
HepG2 [8] = assay: Induction of apoptosis in human HepG2 cells assessed as increase in cleaved PARP1 protein expression at 1 to 3 uM after 24 hrs by Western blot analysis; format: functional, cell-based
SMMC-7721 [9] = assay: Induction of apoptosis in human SMMC7721 cells assessed as increase in cleaved PARP1 protein expression at 1 to 3 uM after 24 hrs by Western blot analysis; format: functional, cell-based
HepG2 [10] = assay: Induction of apoptosis in human HepG2 cells assessed as increase in p53 protein expression at 1 to 3 uM after 24 hrs by Western blot analysis; format: functional, cell-based
HepG2 [11] = assay: Induction of autophagy in human HepG2 cells assessed as vacuolization after 12 hrs; format: functional, cell-based
SMMC-7721 [12] = assay: Induction of autophagy in human SMMC7721 cells after 24 hrs by MDC staining based HCS analysis; format: functional, cell-based
SMMC-7721 [13] = assay: Induction of autophagy in human SMMC7721 cells assessed as increase in LC3-2 level by Western blot analysis; format: functional, cell-based
HepG2 [14] = assay: Induction of autophagy in human HepG2 cells assessed as increase in LC3-2 level by Western blot analysis; format: functional, cell-based
SMMC-7721 [15] = assay: Induction of autophagy in human SMMC7721 cells assessed as decrease in p62 level at 1 to 3 uM by Western blot analysis; format: functional, cell-based
SMMC-7721 [16] = assay: Cytotoxicity against human SMMC7721 cells assessed as reduction in cell viability in presence of autophagy inhibitor 3-MA by MTT assay; format: functional, cell-based
HepG2 [17] = assay: Induction of ROS generation in human HepG2 cells at 1 to 3 uM after 24 hrs by DCFH-DA staining based HCS analysis; format: functional, cell-based
SMMC-7721 [18] = assay: Cytotoxicity against human SMMC7721 cells assessed as reduction in cell viability treated at 1 hr post antioxidant alpha-tocopherol addition by MTT assay; format: functional, cell-based
SMMC-7721 [19] = assay: Cytotoxicity against human SMMC7721 cells assessed as morphological changes treated at 1 hr post antioxidant alpha-tocopherol addition and measured after 24 hrs; format: functional, cell-based
HepG2 [20] = assay: Induction of apoptosis in human HepG2 cells treated at 1 hr post antioxidant alpha-tocopherol addition and measured after 24 hrs by Annexin V/propidium iodide staining based flow cytometry; format: functional, cell-based
SMMC-7721 [21] = assay: Induction of apoptosis in human SMMC7721 cells treated at 1 hr post antioxidant alpha-tocopherol addition and measured after 24 hrs by Annexin V/propidium iodide staining based flow cytometry; format: functional, cell-based
SMMC-7721 [22] = assay: Antimigratory activity against human SMMC7721 cells after 24 hrs by scratch wound healing assay; format: functional, cell-based
SMMC-7721 [23] = assay: Downregulation of beta-catenin protein expression in human SMMC7721 cells at 1 to 3 uM after 24 hrs by Western blot analysis; format: functional, cell-based
HepG2 [24] = assay: Downregulation of beta-catenin protein expression in human HepG2 cells at 1 to 3 uM after 24 hrs by Western blot analysis; format: functional, cell-based
HepG2 [25] = assay: Antimigratory activity against human HepG2 cells treated at 1 hr post antioxidant alpha-tocopherol addition and measured after 24 hrs by scratch wound healing assay; format: functional, cell-based
SMMC-7721 [26] = assay: Antimigratory activity against human SMMC7721 cells treated at 1 hr post antioxidant alpha-tocopherol addition and measured after 24 hrs by scratch wound healing assay; format: functional, cell-based

## CCCCN1C(=O)c2ccc3c4c(ccc(c24)C1=O)C(=O)N(CCCN(C)C)C3=O
HepG2 [1]
  IC50: 1.48 µM
SMMC-7721 [2]
  IC50: 1.7 µM
MDA-MB-231
  IC50: 5.79 µM
MCF7
  IC50: 5.15 µM
HepG2 [3]
  IC50: 4.29 µM
SMMC-7721 [4]
  Activity: Active
HepG2 [5]
  Activity: Dose-dependent effect
SMMC-7721 [6]
  Activity: Dose-dependent effect
SMMC-7721 [7]
  Activity: 52.1%
HepG2 [8]
  Activity: Active
SMMC-7721 [9]
  Activity: Active
HepG2 [10]
  Activity: Active
HepG2 [11]
  Activity: Active
SMMC-7721 [12]
  Activity: Dose-dependent effect
SMMC-7721 [13]
  Activity: Dose-dependent effect
HepG2 [14]
  Activity: Dose-dependent effect
SMMC-7721 [15]
  Activity: Active
SMMC-7721 [16]
  Activity: inactive
HepG2 [17]
  Activity: Active
SMMC-7721 [18]
  Activity: inactive
SMMC-7721 [19]
  Activity: inactive
HepG2 [20]
  Activity: inactive
SMMC-7721 [21]
  Activity: inactive
SMMC-7721 [22]
  Activity: Dose-dependent effect
SMMC-7721 [23]
  Activity: Active
HepG2 [24]
  Activity: Active
HepG2 [25]
  Activity: inactive
SMMC-7721 [26]
  Activity: inactive
